According to patent US8507460B2, “Substituted 3′,5′-cyclic phosphates of purine nucleotide compounds and pharmaceutical compositions for the treatment of viral infections” (priority 2011, dated 2013):

Legend:
HCV genotype 1b replicon = assay: HCV Replicon Assay (Zluc luciferase reporter); type: cell-based
Description: Huh-7-derived cell line (Zluc) that harbors an HCV genotype 1b replicon and a luciferase reporter gene was grown in Dulbecco's Modified Eagle Medium (DMEM) supplemented with 10% fetal bovine serum, 2 mM GlutaMAX, 1% MEM nonessential amino acids, 100 IU/mL penicillin, 100 μg/mL streptomycin, and 0.5 mg/mL Geneticin® (G418). For dose response testing the cells were seeded in 96-well plates at 7.5×10^3 cells per well in a volume of […], and incubated at 37° C./5% CO2. Drug solutions were made up freshly in Huh-7 media as 2× stocks. […] 5-fold dilutions were prepared from these stocks in DMEM without G418. At least three hours after Zluc cells were seeded, drug treatment was initiated by adding 50 μL of drug dilutions to the plates in duplicate. Final concentrations of drug ranged from 100 μM to 0.0000512 μM. Cells were then incubated at 37° C./5% CO2. Alternatively, compounds were tested at two concentrations (1 μM and 10 μM). […] After 72 hours of incubation, the inhibition of HCV replication was measured by quantification of photons emitted after mono-oxygenation of 5′-fluoroluciferin to oxyfluoroluciferin by firefly luciferase. For this, media was removed from the plates via gentle tapping. Fifty microliters of ONE-glo luciferase assay reagent was added to each well. The plates were shaken gently for 3 min at room temperature and luminescence was measured on a Victor^3 V 1420 multilabel counter (Perkin Elmer) with a 1 second read time using a 700 nm cut-off filter. The EC50 values were calculated from dose response curves from the resulting best-fit equations determined by Microsoft Excel and XLfit 4.1 software. When screening at two fixed concentrations, the results were expressed as % inhibition at 1 μM and 10 μM.

[1] = Stability in simulated gastric and intestinal fluids; type: in vitro ADME; conditions: 100 μM, 2 hours at 37° C., percent of peak area at time zero
Description: Simulated gastric and intestinal fluids containing pepsin and pancreatin respectively were prepared according to the U.S. Pharmacopoeia USP291 procedure (www.pharmacopeia.cn/v29240/usp29nf24s0_ris1s126.html). Test compound (final concentration 100 μM) was incubated in duplicate in the appropriate fluid for 2 hours at 37° C. The samples were quenched with 200 μl cold acetonitrile, vortexed for 30 seconds and then centrifuged at 16,100 g for 10 min. The supernatants were analyzed by HPLC on a C-18 column with UV detection at 252 nm. The time 0 samples were prepared by adding SGF or SIF fluid to the quenching solvent followed by the test compound. Stability of the compound was determined by peak area the test compound after incubation and calculated as percent of the peak area observed at time zero.

[2] = Stability in fresh human whole blood; type: in vitro ADME; conditions: 0.5 μM, percent unchanged
Description: (§1) Stability of test compounds were determined in fresh human whole blood with K2EDTA as the anticoagulant (stored refrigerated at 2-8° C. and used within 7 days of receipt). The experiment was conducted with three replicates for each time point. Whole blood, pre-incubated at 37° C. for 10-15 minutes, was fortified with a solution of test compound for a final concentration of 0.5 μM and mixed for 30 sec. At intervals (0, 0.5, 1 and 2 hr), three […] aliquots were combined with 200 μL (each) of an ice-cold solution of the internal standard (carbutamide 500 ng/mL in acetonitrile). The samples were vortexed for 30 sec and then centrifuged at 16,100 g for 5 min. The supernatant was analyzed by LC-MS/MS. The MS peak area ratio of the test compound versus the internal standard was calculated and percent unchanged test compound was calculated for each time point using this ratio.

Stability in mouse blood = type: in vitro ADME; conditions: mouse whole blood, on ice, percent unchanged
Description: as §1
The stability in mouse blood was determined on ice at 0, 0.5 and 1 hr as above.

[3] = Stability in rat whole blood; type: in vitro ADME
[4] = Plasma and liver pharmacokinetics following a single oral dose in monkeys (Example 6); type: in vivo; conditions: cynomolgus monkey, plasma, Cynomolgus monkeys, single oral dose (mg/kg per Table 6: 1a 10, A 25, B 10, C 10, D 50)
Description: […] Untreated animals were used for the collection of control liver. Plasma samples were collected at 1, 2, 4, 6, 8, 12 and 24 hours for all compounds and additionally at 0.5 hour (Compounds 1a, B and D), 3 and 10 hours (Compound C), and 32 and 48 hours post dose for Compound A. Terminal liver samples were collected from three animals per time point at 6, 12 and 24 hours post dose for all compounds and additionally at 2 hours (Compounds 1a, B and D), 3 hours (Compound C) and 32 and 48 hours post dose for Compound A. Liver specimens were collected from all animals immediately after the incision. Freezing forceps stored in liquid nitrogen were used to freeze the liver before excision.
Plasma samples were analyzed for the prodrug and 2′-methylguanosine (2′-MeG) or relevant nucleoside by LC-MS/MS. For protein precipitation and extraction, each plasma sample (50 μL) was treated with 500 μL of 0.2% formic acid in acetonitrile and 20 μL of an appropriate internal standard working solution. After vortexing and centrifugation, 500 μL of the sample extracts were transferred to a new plate, dried under N2 at ˜28° C. and reconstituted with 75 μL of 0.2% FA in water. The extracts were chromatographed on an Aquasil C18 column using a gradient system of 0.2% formic acid in water and acetonitrile. The analytes were detected and quantified by tandem mass spectrometry in positive ion mode on an MDS Sciex API5000 or an API4000 equipped with a Turbo Ionspray® interface. The calibration range was 0.500 (LLOQ) to 200 ng/mL in mouse plasma. The corresponding range for molar units is 1.68 to 673 pmol/mL.
Liver samples were analyzed for the active species 2′-methylguanosine triphosphate (2′-MeGTP) or relevant nucleoside triphosphate by LC-MS/MS. The triphosphate levels were assayed by homogenizing (on ice) a known weight of mouse liver with 4× volume of 0.95 M trichloroacetic acid (TCA). Appropriate internal standard solution was added to the homogenate followed by neutralization with 20% ammonium hydroxide solution and addition of 500 μL 1% formic acid. The tissue samples were extracted by weak anion exchange solid phase extraction (SPE). Post extraction, the eluates were evaporated under nitrogen, followed by reconstitution before injection onto the LC-MS/MS system. The samples were chromatographed on a Luna NH2 column using a gradient system of ammonium acetate (1 mM to 20 mM and pH 8.0 to pH 10.0) in water and acetonitrile (70:30). The analyte was detected and quantified by tandem mass spectrometry in positive ion mode on an API4000 equipped with a Turbo Ionspray® interface. The calibration range was 10 to 10000 pmol/mL in mouse liver homogenate (50 to 50000 pmol/g of mouse liver).

Question: What does the source list for `CCOc1nc(N)nc2c1ncn2[C@@H]1O[C@@H]2COP(=O)(OC(C)C)O[C@H]2[C@@]1(C)O` (single isomer, unassigned) [Compound 1a]?
Answer: selectivity index (HCV genotype 1b replicon; HCV replicon assay, Zluc cells): greater than 100; EC50 (HCV genotype 1b replicon; Zluc cells (Huh-7-derived, HCV genotype 1b replicon, luciferase reporter), 72 hours): ≤ 250 nM; Stability SGF ([1]; simulated gastric fluid with pepsin): 99%; Stability SIF ([1]; simulated intestinal fluid with pancreatin): 99%; Stability WB_Human (37° C.; 2 hr) [2]: 101%; Stability WB_Mouse (ice; 1 hr) (Stability in mouse blood): 94%; Stability WB_Rat (ice; 1 hr) [3]: 105%; AUC(0-t) ([4]; normalized to 1 μmol/kg dose, read-out: Plasma prodrug AUC0-24): 0.15 µM·h; Cmax ([4]; normalized to 1 μmol/kg dose, read-out: Plasma prodrug Cmax): 22 nM; Tmax ([4]; read-out: Plasma prodrug Tmax): 2 h
